Results: patent US9051310B2, “Nicotinamide derivative or salt thereof” (FUJIFILM Corporation, priority 2011, dated 2015)

Each compound was assayed against T1, glutathione S-transferase (GST)-linked full-length human Syk protein (Homo sapiens, UniProt P43405) (assay: Syk enzyme assay). Settings: 0.83 nM Syk, time-resolved fluorescence; read-out: IC50 of Syk-inhibitory activity.
T1 construct: glutathione S-transferase (GST)-linked full-length human Syk protein; purchased Carna Biosciences; host or cells: Baculovirus expression system
Type: biochemical
Procedure: A glutathione S-transferase (GST)-linked full-length human Syk protein (Carna Biosciences), which had been generated using a Baculovirus expression system, was used in the Syk enzyme assay.
7.5 μl of a reaction solution (0.83 nM Syk, 20 mM HEPES, 10 mM MgCl2, 50 mM NaCl, 2 mM DTT, 0.05% BSA, pH 7.0) containing a Syk protein and a predetermined concentration of a test compound was shaken for 2 minutes, and it was then left at rest at room temperature for 13 minutes. Thereafter, 0.5 μM substrate peptide (Biotin-[…]-NH2) and 5 μL of a solution containing 67.5 μM ATP were added to the reaction solution, and the obtained mixture was then shaken for 2 minutes. The reaction solution was further left at rest at room temperature for 40 minutes, so as to carry out an enzyme reaction.
Thereafter, 50 μL of a reaction termination solution [60 nM APC-SA, 0.45 μg/mL Eu-PT66, 30 mM HEPES (pH 7.0), 150 mM KF, 30 mM EDTA, 0.15% BSA, 0.075% Tween20] containing Allophycocyanin-Streptavidin (APC-SA; PerkinElmer) and an Eu-W1024-labeled anti-phosphotyrosine PT66 antibody (Eu-PT66; PerkinElmer) was added to the reaction solution to terminate the enzyme reaction. At the same time, the reaction solution was left at rest at room temperature for 1 hour, so as to carry out an antigen-antibody reaction. Thereafter, using EnVision (PerkinElmer), the level of time-resolved fluorescence was measured at 615 nm and 665 nm, so that the phosphorylation of the substrate peptide was measured.
The following are used in Table 5 to denote standards for evaluating IC50 of Syk-inhibitory activity. • A: Up to 10 nM • B: 10 to 50 nM • C: 50 to 100 nM

First: Cc1ncc(Nc2nc(NC3[C@@H](OCc4ccccc4)CCC[C@@H]3N)c(F)cc2C(N)=O)cc1-n1nccn1 (mixture of isomers) [Example 2-484, Mixture of 6-((2-amino-6-(benzyloxy)cyclohexyl)amino)-5-fluoro-2-((6-methyl-5-(2H-1,2,3-triazol-2-yl)pyridin-3-yl)amino)nicotinamide (1S,2S,6S),(1R,2R,6R)]
Second: Cc1ncc(Nc2nc(N[C@@H]3CC[C@@H](OCc4ccccc4)C[C@@H]3N)c(F)cc2C(N)=O)cc1-n1nccn1 (racemic) [Example 2-528, Mixture of 6-((2-amino-4-(benzyloxy)cyclohexyl)amino)-5-fluoro-2-((6-methyl-5-(2H-1,2,3-triazol-2-yl)pyridin-3-yl)amino)nicotinamide (1R,2S,4R), (1S,2R,4S)]
The IC50 of the first is lower: 10 to 50 nM for the first, 50 to 100 nM for the second.

`Cc1ncc(Nc2nc(N[C@@H]3CC[C@@H](O)C[C@@H]3N)c(F)cc2C(N)=O)cc1-n1nccn1` (racemic) [Example 2-531, Mixture of 6-((2-amino-4-hydroxycyclohexyl)amino)-5-fluoro-2-((6-methyl-5-(2H-1,2,3-triazol-2-yl)pyridin-3-yl)amino)nicotinamide (1R,2S,4R), (1S,2R,4S)] and `Cc1ncc(Nc2nc(N[C@@H]3CCC(F)(F)C[C@@H]3N)c(F)cc2C(N)=O)cc1-n1nccn1` (racemic) [Example 2-564, Mixture of 6-((2-amino-4,4-difluorocyclohexyl)amino)-5-fluoro-2-((6-methyl-5-(2H-1,2,3-triazol-2-yl)pyridin-3-yl)amino)nicotinamide (1R,2S), (1S,2R)] fall in the same range of IC50: 10 to 50 nM for the first, 10 to 50 nM for the second.

First: Cc1nn(-c2cncc(Nc3nc(N[C@H]4CCCC[C@H]4N)c(F)cc3C(N)=O)c2)nc1C (stereo in doubt) [Example 2-533, 6-(((1S,2R)-2-aminocyclohexyl)amino)-2-((5-(4,5-dimethyl-2H-1,2,3-triazol-2-yl)pyridin-3-yl)amino)-5-fluoronicotinamide]
Second: NC(=O)c1cc(F)c(N[C@@H]2CCCC[C@@H]2N)nc1Nc1cnc(-n2ccnn2)c(F)c1 [Example 2-68, 6-(((1R,2S)-2-aminocyclohexyl)amino)-5-fluoro-2-((5-fluoro-6-(1H-1,2,3-triazol-1-yl)pyridin-3-yl)amino)nicotinamide]
The IC50 of the first is higher: 50 to 100 nM for the first, 10 to 50 nM for the second. The second is the more potent here.

`CC(C)C[C@@H](Nc1nc(Nc2ccc3c(c2)c(N(C)C)nn3C)c(C(N)=O)cc1F)[C@H](C)N` [Example 2-3, 6-(((2S,3R)-2-amino-5-methylhexan-3-yl)amino)-2-((3-(dimethylamino)-1-methyl-1H-indazol-5-yl)amino)-5-fluoronicotinamide] and `CC(C)C[C@@H](Nc1nc(Nc2ccc3nn(C)c(N(C)C)c3c2)c(C(N)=O)cc1F)[C@H](C)N` [Example 2-15, 6-(((2S,3R)-2-amino-5-methylhexan-3-yl)amino)-2-((3-(dimethylamino)-2-methyl-2H-indazol-5-yl)amino)-5-fluoronicotinamide] cannot be ordered by IC50: < 10 nM for the first, < 10 nM for the second.

Compared with `CC(C)C[C@@H](Nc1nc(Nc2cccc3c2cnn3C)c(C(N)=O)cc1F)[C@H](C)N` [Example 2-12, 6-(((2S,3R)-2-amino-5-methylhexan-3-yl)amino)-5-fluoro-2-((1-methyl-1H-indazol-4-yl)amino)nicotinamide], `CC[C@@H](Nc1nc(Nc2ccc3nn(C)c(N(C)C)c3c2)c(C(N)=O)cc1F)[C@H](C)N` [Example 2-16, 6-(((2S,3R)-2-aminopentan-3-yl)amino)-2-((3-(dimethylamino)-2-methyl-2H-indazol-5-yl)amino)-5-fluoronicotinamide] is higher in IC50: < 10 nM for the first, 10 to 50 nM for the second.

First: C[C@H](N)[C@@H](CC1CC1)Nc1nc(Nc2ccc3nn(C)c(N(C)C)c3c2)c(C(N)=O)cc1F [Example 2-14, 6-(((2R,3S)-3-amino-1-cyclopropylbutan-2-yl)amino)-2-((3-(dimethylamino)-2-methyl-2H-indazol-5-yl)amino)-5-fluoronicotinamide]
Second: COc1nn(CC(F)F)c2ccc(Nc3nc(N[C@H](CC4CC4)[C@H](C)N)c(F)cc3C(N)=O)cc12 [Example 2-53, 6-(((2R,3S)-3-amino-1-cyclopropylbutan-2-yl)amino)-2-((1-(2,2-difluoroethyl)-3-methoxy-1H-indazol-5-yl)amino)-5-fluoronicotinamide]
The IC50 of the first is higher: 10 to 50 nM for the first, < 10 nM for the second.

Compared with `COc1cc(Nc2nc(N[C@H](C3CCC3)[C@H](C)N)c(F)cc2C(N)=O)ccc1C` [Example 2-30, 6-(((1R,2S)-2-amino-1-cyclobutylpropyl)amino)-5-Fluoro-2-((3-methoxy-4-methylphenyl)amino)nicotinamide], `C[C@H](N)[C@H](Nc1nc(Nc2ccc(F)c(F)c2)c(C(N)=O)cc1F)C1CCC1` [Example 2-61, 6-(((1R,2S)-2-amino-1-cyclobutylpropyl)amino)-2-((3,4-difluorophenyl)amino)-5-fluoronicotinamide] is higher in IC50: < 10 nM for the first, 10 to 50 nM for the second.

`CC[C@@H](Nc1nc(Nc2ccnc(OCCOC)c2)c(C(N)=O)cc1F)[C@H](C)N` [Example 2-34, 6-(((2S,3R)-2-aminopentan-3-yl)amino)-5-fluoro-2-((2-(2-methoxyethoxy)pyridin-4-yl)amino)nicotinamide] and `CC[C@@H](Nc1nc(Nc2cnc(OC)c(F)c2)c(C(N)=O)cc1F)[C@H](C)N` [Example 2-64, 6-(((2S,3R)-2-aminopentan-3-yl)amino)-5-fluoro-2-((5-fluoro-6-methoxypyridin-3-yl)amino)nicotinamide] fall in the same range of IC50: 10 to 50 nM for the first, 10 to 50 nM for the second.

`CC[C@H](N)[C@@H](C)Nc1nc(Nc2cnc(C)c(C)c2)c(C(N)=O)cc1F` [Example 2-35, 6-(((2R,3S)-3-aminopentan-2-yl)amino)-2-((5,6-dimethylpyridin-3-yl)amino)-5-fluoronicotinamide] and `CCC[C@@H](Nc1nc(Nc2cnc(OC)c(F)c2)c(C(N)=O)cc1F)[C@H](C)N` [Example 2-65, 6-(((2S,3R)-2-aminohexan-3-yl)amino)-5-fluoro-2-((5-fluoro-6-methoxypyridin-3-yl)amino)nicotinamide] fall in the same range of IC50: 10 to 50 nM for the first, 10 to 50 nM for the second.

First: CC[C@@H](Nc1nc(Nc2ccc3c(c2)c(OC)nn3CC(F)F)c(C(N)=O)cc1F)[C@H](C)N [Example 2-55, 6-(((2S,3R)-2-aminopentan-3-yl)amino)-2-((1-(2,2-difluoroethyl)-3-methoxy-1H-indazol-5-yl)amino)-5-fluoronicotinainide]
Second: COc1ncc(Nc2nc(N[C@H](C3CC3)[C@H](C)N)c(F)cc2C(N)=O)cc1F [Example 2-62, 6-(((1R,2S)-2-amino-1-cyclopropylpropyl)amino)-5-fluoro-2-((5-fluoro-6-methoxypyridin-3-yl)amino)nicotinamide.]
The IC50 of the first is lower: < 10 nM for the first, 10 to 50 nM for the second.

`C[C@H](N)[C@H](Nc1nc(Nc2ccc(F)c(F)c2)c(C(N)=O)cc1F)C1CC1` [Example 2-59, 6-(((1R,2S)-2-amino-1-cyclopropylpropyl)amino)-2-((3,4-difluorophenyl)amino)-5-fluoronicotinamide] and `C[C@H](N)[C@H](Nc1nc(Nc2ccc(F)cc2)c(C(N)=O)cc1F)C1CCC1` [Example 2-60, 6-(((1R,2S)-2-amino-1-cyclobutylpropyl)amino)-5-fluoro-2-((4-fluorophenyl)amino)nicotinamide] fall in the same range of IC50: 10 to 50 nM for the first, 10 to 50 nM for the second.

With `COc1ncc(Nc2nc(N[C@H](C3CCC3)[C@H](C)N)c(F)cc2C(N)=O)cc1F` [Example 2-63, 6-(((1R,2S)-2-amino-1-cyclobutylpropyl)amino)-5-fluoro-2-((5-fluoro-6-methoxypyridin-3-yl)amino)nicotinamide.] the IC50 was 10 to 50 nM.
